This is an account of results in patent US8173689B2 (Novartis AG, priority 2006, dated 2012).

In general, inhibition refers to how much of the control response was suppressed.

Where two headings read alike, the source gives them in different places.

The target in assay [1] is T1, cytoplasmic domain of the human CSF-1R (Homo sapiens, UniProt P07333).
T1 construct: Recombinant protein corresponding to the cytoplasmic domain of the human CSF-1R; purchased Invitrogen Corporation, Carlsbad, Calif; PV3249
T1 sequence (P07333 539-972 limits assumed): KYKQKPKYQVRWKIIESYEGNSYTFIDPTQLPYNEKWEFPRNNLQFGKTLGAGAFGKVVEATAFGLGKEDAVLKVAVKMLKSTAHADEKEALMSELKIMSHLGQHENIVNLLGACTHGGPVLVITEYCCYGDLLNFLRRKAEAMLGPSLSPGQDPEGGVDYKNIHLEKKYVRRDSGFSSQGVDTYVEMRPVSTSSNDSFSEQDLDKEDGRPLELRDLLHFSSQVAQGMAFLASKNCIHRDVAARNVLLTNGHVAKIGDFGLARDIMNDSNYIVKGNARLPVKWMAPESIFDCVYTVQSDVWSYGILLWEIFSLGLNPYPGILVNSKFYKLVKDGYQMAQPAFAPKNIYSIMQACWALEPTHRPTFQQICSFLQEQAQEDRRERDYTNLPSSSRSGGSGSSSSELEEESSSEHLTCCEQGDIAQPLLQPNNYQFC
Briefly: In vitro kinase assay for colony stimulating factor-1 receptor (AlphaScreen). To be noted: tested at about 1 μM, read-out: CSF-1R percent inhibition. The class given is biochemical. A digest of the protocol:
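Tyrosine phosphorylation of a peptide substrate by 4 nM recombinant cytoplasmic-domain enzyme is measured at 1 μM ATP in Mn2+/Mg2+-containing Hepes buffer, pH 7.5. Detection uses PT66 AlphaScreen beads after overnight incubation.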
(In general: Bead proximity is the source of the signal in Alpha formats.)

In assay [2] the target is T2, full-length human CSF-1R receptor (Homo sapiens, UniProt P07333).
T2 construct: transfected with the full-length human CSF-1R receptor cloned in house; expressed in transfected cells; host or cells: HEK293H (Invitrogen Cat. #11631017)
T2 sequence (P07333 20-972): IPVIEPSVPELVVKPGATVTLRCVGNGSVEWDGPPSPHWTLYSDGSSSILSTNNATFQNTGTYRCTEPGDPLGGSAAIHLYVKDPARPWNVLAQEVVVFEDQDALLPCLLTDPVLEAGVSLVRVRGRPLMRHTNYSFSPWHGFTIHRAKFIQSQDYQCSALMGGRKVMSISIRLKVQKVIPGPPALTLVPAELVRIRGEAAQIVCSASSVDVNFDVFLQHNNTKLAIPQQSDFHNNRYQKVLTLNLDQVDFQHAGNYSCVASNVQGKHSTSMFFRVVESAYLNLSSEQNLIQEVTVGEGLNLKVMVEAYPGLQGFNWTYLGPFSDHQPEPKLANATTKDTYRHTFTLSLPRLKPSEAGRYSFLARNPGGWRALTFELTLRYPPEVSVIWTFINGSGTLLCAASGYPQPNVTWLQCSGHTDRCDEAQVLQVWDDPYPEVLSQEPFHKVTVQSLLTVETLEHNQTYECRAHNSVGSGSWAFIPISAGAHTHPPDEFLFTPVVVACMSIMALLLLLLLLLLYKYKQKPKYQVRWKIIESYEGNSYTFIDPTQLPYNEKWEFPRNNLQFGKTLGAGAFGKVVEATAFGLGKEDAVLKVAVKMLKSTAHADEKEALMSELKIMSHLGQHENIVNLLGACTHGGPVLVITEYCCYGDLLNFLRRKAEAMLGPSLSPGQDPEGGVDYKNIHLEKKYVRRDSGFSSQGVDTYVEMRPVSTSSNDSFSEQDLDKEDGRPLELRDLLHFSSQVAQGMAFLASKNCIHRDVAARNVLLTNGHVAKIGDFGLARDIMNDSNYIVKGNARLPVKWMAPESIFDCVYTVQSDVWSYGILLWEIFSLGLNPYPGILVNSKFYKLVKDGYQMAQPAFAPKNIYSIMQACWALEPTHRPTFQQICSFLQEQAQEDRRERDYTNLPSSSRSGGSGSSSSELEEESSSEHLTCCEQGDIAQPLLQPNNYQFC
Nature of the assay: In vitro inhibition of CSF-1R receptor tyrosine phosphorylation in transfected HEK293H cells stimulated with MCSF. The class given is cell-based. As to conditions: HEK293-H, tested at about 1 μM, read-out: pCSF1R percent inhibition. How it is done: The lysate was then transferred to total CSF-1R antibody coated 96-well plates that had already been blocked with 3% Blocker A from Mesoscale discovery (MSD) for 2 hours and washed afterwards. Lysates were incubated overnight at 4° C. and the plates were then washed 4× with MSD Tris Wash Buffer. […] The plates were read on the Sector 6000 instrument (MSD). Raw data was imported in Abase and EC50s calculated with XL-fit data analysis software.

Another assay deals with T3, kinase domain of cKIT (Homo sapiens, UniProt P10721).
T3 construct: The kinase domain of cKIT was assayed in 50 mM Hepes; purchased Upstate 14-559
T3 sequence (P10721 589-937 limits assumed): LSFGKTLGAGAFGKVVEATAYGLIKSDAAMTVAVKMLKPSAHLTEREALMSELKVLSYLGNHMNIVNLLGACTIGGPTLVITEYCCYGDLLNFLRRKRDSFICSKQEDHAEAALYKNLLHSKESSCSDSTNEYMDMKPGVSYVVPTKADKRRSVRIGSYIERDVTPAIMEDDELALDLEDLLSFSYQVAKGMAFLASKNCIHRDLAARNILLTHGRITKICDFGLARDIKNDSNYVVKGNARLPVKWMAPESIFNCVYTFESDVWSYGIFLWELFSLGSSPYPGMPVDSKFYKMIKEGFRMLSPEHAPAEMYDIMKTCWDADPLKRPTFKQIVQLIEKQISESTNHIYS
Nature of the assay: Inhibition of cKIT kinase signaling in an in vitro biochemical assay (alphascreen). To be noted: tested at about 1 μM, read-out: cKit percent inhibition.

In the next assay the target is T4, kinase domain of PDGFRβ (Homo sapiens, UniProt P09619).
T4 construct: The kinase domain of PDGFRβ was assayed in 50 mM Hepes; purchased Invitrogen P3082
T4 sequence (P09619 600-962 limits assumed): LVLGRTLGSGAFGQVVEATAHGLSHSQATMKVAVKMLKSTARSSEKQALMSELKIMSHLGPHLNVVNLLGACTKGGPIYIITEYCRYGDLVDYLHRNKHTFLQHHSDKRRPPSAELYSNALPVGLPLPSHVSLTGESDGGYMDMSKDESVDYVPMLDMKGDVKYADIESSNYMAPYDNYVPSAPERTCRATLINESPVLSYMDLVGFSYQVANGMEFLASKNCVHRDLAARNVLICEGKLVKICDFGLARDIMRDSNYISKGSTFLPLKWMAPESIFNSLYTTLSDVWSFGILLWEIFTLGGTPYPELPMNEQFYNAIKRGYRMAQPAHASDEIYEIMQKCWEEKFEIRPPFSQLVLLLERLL
Nature of the assay: Inhibition of PDGFRb kinase signaling in an in vitro biochemical assay (alphascreen). As to conditions: tested at about 1 μM, read-out: PDGFRβ percent inhibition.

Assay [3] relates to MNFS60 (murine AML cells). Nature of the assay: Cell viability assay in MCSF dependent MNFS60 cells (Cell Titer Glo). The class given is cell-based. As to conditions: Mus musculus, tested at about 1 μM, read-out: M-NFS-60 CP percent inhibition. The gist of the method: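 Compounds were serially diluted 3-fold in DMSO to 500× final and added to cells with MCSF at 10 ng/ml final. After 72 hrs at 37° C. under 5% CO2, viable cells were quantified by CellTiter-Glo luminescence; triplicate wells gave EC50 values by curve fitting.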
(In general: In ATP-based viability assays light output follows the ATP content of the culture.)

`CNC(=O)c1cc(Oc2ccc3nc(N[C@@H]4c5ccccc5C[C@@H]4O)oc3c2)ccn1` [Compound 50, 4-[2-((1R,2S)-2-Hydroxy-indan-1-ylamino)-benzooxazol-6-yloxy]-pyridine-2-carboxylic acid methylamide]: the inhibition at 1 µM in assay [1] (compounds of Table 3) came out at 99%; in assay [1] (compounds of Table 4) it was 100%; in assay [1], 56%; in assay [2] (compounds of Table 4), 99%; on kinase domain of cKIT (compounds of Table 3), 13%; on kinase domain of cKIT (compounds of Table 4), 10%. Moreover, the inhibition at 1 µM came to 59% at kinase domain of cKIT; 14% on kinase domain of PDGFRβ (compounds of Table 3); 14% at kinase domain of PDGFRβ (compounds of Table 4); 8% on kinase domain of PDGFRβ; 18% in assay [3] (compounds of Table 3); 100% in assay [3] (compounds of Table 4).

For the molecule `CNC(=O)c1cc(Oc2ccc3nc(N[C@H]4CCCC[C@@H]4O)oc3c2)ccn1` [Compound 52, 4-[2-((1S,2S)-2-Hydroxy-cyclohexylamino)-benzooxazol-6-yloxy]-pyridine-2-carboxylic acid methylamide], the inhibition at 1 µM in assay [1] was found to be 100%; in assay [2] (HEK293H cells), 71%; on kinase domain of cKIT, 12%; on kinase domain of PDGFRβ, 50%; in assay [3] (MNFS60 cells) it was 56%.

Regarding `CNC(=O)c1cc(Oc2ccc3nc(N[C@H](C)C4CCCCC4)oc3c2)ccn1` [Compound 54, 4-[2-((R)-1-Cyclohexyl-ethylamino)-benzooxazol-6-yloxy]-pyridine-2-carboxylic acid methylamide], the inhibition at 1 µM in assay [1] was determined as 100%; in assay [2] (HEK293H cells), 60%; on kinase domain of cKIT, 17%; at kinase domain of PDGFRβ, 7%; in assay [3] (MNFS60 cells), 64%.

With `COCCn1cc(-c2cc(Oc3ccc4nc(N[C@@H]5c6ccccc6C[C@@H]5O)sc4c3)ccn2)cn1` [Compound 58], the inhibition at 1 µM in assay [1] (compounds of Table 4) was found to be 100%; in assay [2] (compounds of Table 4) it was 95%; on kinase domain of cKIT (compounds of Table 4), 11%; at kinase domain of PDGFRβ (compounds of Table 4), 0%; in assay [3] (compounds of Table 4), 100%.

`CNC(=O)c1cc(Oc2ccc3nc(NCc4cccc5c4OCCO5)oc3c2)ccn1` [Compound 65, 4-{2-[(2,3-Dihydro-benzo-[1,4]dioxin-5-ylmethyl)-amino]-benzooxazol-6-yloxy}-pyridine-2-carboxylic acid methylamide]: the inhibition at 1 µM in assay [1] turned out to be 99%; in assay [2] (HEK293H cells) it was 97%; on kinase domain of cKIT it was 98%; on kinase domain of PDGFRβ, 38%; in assay [3] (MNFS60 cells) it was 100%.

For the molecule `CNC(=O)c1cc(Oc2ccc3nc(N[C@H](CO)C4CCCCC4)oc3c2)ccn1` [Compound 66, 4-[2-((S)-1-Cyclohexyl-02-hydroxy-ethylamino)-benzo-oxazol-6-yloxy]-pyridine-2-carboxylic acid methylamide], the inhibition at 1 µM in assay [1] was 100%; in assay [2] (HEK293H cells), 37%; at kinase domain of cKIT, 55%; on kinase domain of PDGFRβ, 37%; in assay [3] (MNFS60 cells) it was 18%.

Consider `CNC(=O)c1cc(Oc2ccc3nc(N[C@@H](CO)C4CCCCC4)oc3c2)ccn1` [Compound 67, 4-[2-((R)-1-Cyclohexyl-2-hydroxy-ethylamino)-benzo-oxazol-6-yloxy]-pyridine-2-carboxylic acid methylamide], for which the inhibition at 1 µM is 97% in assay [1]; 0% in assay [2] (HEK293H cells); 8% on kinase domain of cKIT; 1% at kinase domain of PDGFRβ; 10% in assay [3] (MNFS60 cells).

Take `CNC(=O)c1cc(Oc2ccc3nc(NCc4cccc(Cl)c4Cl)oc3c2)ccn1` [Compound 77, 4-[2-(2,3-Dichloro-benzylamino)-benzooxazol-6-yloxy]-pyridine-2-carboxylic acid methylamide]: the inhibition at 1 µM was determined as 100% in assay [1]; 94% in assay [2] (HEK293H cells); 92% at kinase domain of cKIT; 15% on kinase domain of PDGFRβ; 79% in assay [3] (MNFS60 cells).

Take `CNC(=O)c1cc(Oc2ccc3nc(NCc4cccc(F)c4F)oc3c2)ccn1` [Compound 79, 4-[2-(2,3-Difluoro-benzylamino)-benzooxazol-6-yloxy]-pyridine-2-carboxylic acid methylamide]: the inhibition at 1 µM stood at 100% in assay [1]; 94% in assay [2] (HEK293H cells); 31% at kinase domain of cKIT; 0% on kinase domain of PDGFRβ; 57% in assay [3] (MNFS60 cells).

On to `CNC(=O)c1cc(Oc2ccc3nc(NCc4c(OC)cccc4OC)oc3c2)ccn1` [Compound 84, 4-[2-(2,6-Dimethoxy-benzyl-amino)-benzooxazol-6-yloxy]-pyridine-2-carboxylic acid methylamide], for which the inhibition at 1 µM in assay [1] was 99%; in assay [2] (HEK293H cells) it was 44%; at kinase domain of cKIT it was 12%; at kinase domain of PDGFRβ it was 0%; in assay [3] (MNFS60 cells) it was 32%.

Consider `CNC(=O)c1cc(Oc2ccc3nc(NCc4ccc(=O)[nH]c4)sc3c2)ccn1` [Compound 89], for which the inhibition at 1 µM in assay [1] (compounds of Table 3) amounted to 100%; in assay [2] (compounds of Table 3), 65%; at kinase domain of cKIT (compounds of Table 3) it was 15%; at kinase domain of PDGFRβ (compounds of Table 3), 2%; in assay [3] (compounds of Table 3) it was 15%.

Take `CNC(=O)c1cc(Oc2ccc3nc(NC4CCCCNC4=O)sc3c2)ccn1` (stereo not drawn) [Compound 93]: the inhibition at 1 µM in assay [1] (compounds of Table 3) was determined as 100%; in assay [2] (compounds of Table 3), 47%; at kinase domain of cKIT (compounds of Table 3) it was 12%; at kinase domain of PDGFRβ (compounds of Table 3) it was 0%; in assay [3] (compounds of Table 3), 23%.

Take `CNC(=O)c1cc(Oc2ccc3nc(NC(CO)C4CCOCC4)sc3c2)ccn1` (stereo not drawn) [Compound 95]: the inhibition at 1 µM in assay [1] (compounds of Table 3) is 100%; in assay [2] (compounds of Table 3), 65%; at kinase domain of cKIT (compounds of Table 3) it was 0%; at kinase domain of PDGFRβ (compounds of Table 3), 2%; in assay [3] (compounds of Table 3), 60%.

Turning to `CCOc1ccccc1CNc1nc2ccc(Oc3ccnc(C(=O)NC)c3)cc2o1` [Compound 96, 4-[2-(2-Ethoxy-benzylamino)-benzooxazol-6-yloxy]-pyridine-2-carboxylic acid methylamide], the inhibition at 1 µM in assay [1] was 99%; in assay [2] (HEK293H cells) it was 89%; on kinase domain of cKIT it was 33%; at kinase domain of PDGFRβ, 3%; in assay [3] (MNFS60 cells), 75%.

As for `CNC(=O)c1cc(Oc2ccc3nc(NCc4ccccc4C(F)(F)F)oc3c2)ccn1` [Compound 97, 4-[2-(2-Trifluoromethyl-benzylamino)-benzooxazol-6-yloxy]-pyridine-2-carboxylic acid methylamide], the inhibition at 1 µM was determined as 99% in assay [1]; 84% in assay [2] (HEK293H cells); 99% on kinase domain of cKIT; 5% on kinase domain of PDGFRβ; 67% in assay [3] (MNFS60 cells).

As to `CNC(=O)c1cc(Oc2ccc3nc(NCC4CCCCCC4)oc3c2)ccn1` [Compound 101, 4-[2-(Cycloheptylmethyl-amino)-benzooxazol-6-yloxy]-pyridine-2-carboxylic acid methylamide], the inhibition at 1 µM in assay [1] is 99%; in assay [2] (HEK293H cells), 91%; at kinase domain of cKIT it was 85%; at kinase domain of PDGFRβ, 91%; in assay [3] (MNFS60 cells), 85%.
